Experimental data published in US20110124723A1, “Compounds for Preventing and Treating Plasmodium Infections” (UNIVERSITE PIERRE ET MARIE CURIE (PARIS 6), priority 2007, published 2011).
Counter-ions that a name gives are not always drawn.

Legend:
[1] = test system: P. yoelii sporozoites; assay: Invasion assay, first experiment: pre-treatment of sporozoites, then hepatocytes, EEF count; type: cell-based; details: washed, 48 h with hepatocytes
Experimental: Two experiments were performed.
The first experiment consisted in pre-treatment of P. yoelii sporozoites with MN at 5 pM, 0.5 μM, or 5 μM, for 1 h at room temperature then washed and added to hepatocytes. Sporozoites controls were pre-treated with medium alone and incubated 1 h at room temperature in the same conditions. Parasites were then incubated with hepatocytes for 48 h at 37° C. in 5% CO2, stained, and examined microscopically to determine the quantity of exo-erythrocytic forms (EEF) (Basco et al., 1999; Mahmoudi et al., 2003).

[2] = test system: pre-erythrocytic development stage of P. yoelii; assay: Real-time PCR quantification of the liver stage parasite burden; type: in vivo; details: mice, 25 mg/kg IP on days 0 and +1; 2.5×10^5 sporozoites IV; liver 40 h post-infection
Experimental: MN was administered IP on days 0 and day +1. Group 1 received 25 mg/kg of MN, whereas the control groups received the MN solvent (PBS-Methanol 2%). Mice were then challenged on day 0 by intra-venous injection with 2.5×10^5 P. yoelii sporozoites and sacrificed 40 h post-infection.
A piece of liver (0.2 g) was harvested and total RNA extracted using the Micro to Midi Kit (Invitrogen, France) according to the manufacturer's instructions and treated with Dnase Turbo DNA free (Ambion, France). Five micrograms of total RNA was reverse transcribed by Superscript II (Invitrogen) and an equivalent of 100 ng RNA was used for each TaqMan® PCR reactions on a MX4000 multiplex quantitative PCR system (Stratagene, France).
Mouse β-actin primers (forward […] (SEQ ID NO: 4), reverse […] (SEQ ID NO: 5); Invitrogen) and probe (HEX-[…]-BHQ2 (SEQ ID NO: 6); MWG biotech) were used for normalisation.
P. yoelii 18S rRNA and mouse β-actin PCR fragments were cloned into plasmids and used in a 10-fold dilution series to determine a standard curve.
Absolute transcript copy number for each gene was calculated based on the external standard curve. Quantitative parasite burden was expressed as the ratio between absolute copy numbers of P. yoelii 18S ribosomal cDNA and mouse β-actin cDNA to account for experimental differences. TaqMan® test sample and plasmid standards were done in quadruplet.

[3] = test system: P. yoelii sporozoites (265 BY strain); assay: Challenge of mice with P. yoelii sporozoites, parasitemia in blood smears; type: in vivo; details: Swiss mice, 5,000 sporozoites IV; for reduction of parasitemia with respect to controls: after 12 days
Experimental: All animal were kept and used in accordance with institutional guidelines and European regulations. Female 6-week-old Swiss mice (René Janvier, Le Genest-Saint-Isle, France) weighing 24-31 g were randomly allotted to all groups.
The drugs tested were administered intra-peritoneally (IP). Monensin (MN) (Monensin A sodium salt, ref. M5273, Sigma) was diluted in PBS-methanol 2% and Nigericin (NG) (Nigericin sodium salt, ref. N7143, Sigma), another polyether ionophore antibiotic, in PBS-DMSO 2%.
The drugs were administrated on days −1, 0, +1, +2 (+40 h), and the mice challenged on day 0 by intravenous injection of 5,000 P. yoelii sporozoites (265 BY strain).
Group 1 received 25 mg/kg/day of MN and group 2 received PBS-methanol 2%. These groups received the drug and the solvent from day −1. Group 3 received 25 mg/kg/day of MN and group 4 received PBS-methanol 2% from day 0 post-infection. Group 5 received 35 mg/kg/day of NG and group 6 received PBS-DMSO 2% from day −1. Group 7 and 8 received 35 mg/kg/day of NG and PBS-DMSO 2% respectively from day 0 post-infection.
All groups were challenged with 5,000 sporozoites at day 0. Parasites were enumerated by blinded microscopic examination of Giemsa-stained tail-blood smears collected at day 3 until day 9, day 12 and day 15 post-infection. A mouse was considered negative when no parasites could be observed in 20,000 red blood cells (50 fields under a 50× light microscope objective) on any day during the period of observation.

[4] = test system: P. yoelii sporozoites; assay: Sporozoite migration assay (HepG2CD81 cells, FITC-dextran, flow cytometry); type: cell-based; details: all concentrations (5 μM, 5 nM and 5 picomolar); 2 h at 37° C.; vs untreated sporozoites
Experimental: P. yoelii sporozoites treated with three concentrations (5 μM, 5 nM and 5 picomolar) of MN were incubated with HepG2CD81 cells for 2 h at 37° C. in the continued presence of with 0.5 mg/ml FITC-dextran. After 2 h at 37° C., cells were washed and fixed with PBS-formaldehyde 1%, and FITC-positive cells were counted by flow cytometry.

[5] = test system: P. yoelii sporozoites; assay: Invasion assay, second experiment: infecting hepatocytes with sporozoites in the presence of MN, EEF count; type: cell-based; details: all concentrations (50 pM, 1 μM, 10 μM) present for 3 h during infection, then 45 h culture
Experimental: The second experiment consisted in infecting hepatocytes with sporozoites in the presence of MN at 50 pM, 1 μM, or 10 μM. After 3 h of incubation, MN was eliminated and the cultures were maintained 45 h at 37° C. in 5% CO2.
The cultures were stained and the quantity of exo-erythrocytic forms (EEF) was determined microscopically.

[6] = test system: P. yoelii oocysts in Anopheles stephensi; assay: Transmission to mosquito: oocysts in Anopheles stephensi midguts fed on treated mice; type: in vivo; details: Anopheles stephensi fed 2 hours on MN treated mice; 30 midguts dissected 8 days later
Experimental: The mice of the MN treated group and the control group of Example 3 were anesthetized and placed for 2 hours over a cage with 100 female laboratory-bred Anopheles stephensi. Oocysts were enumerated in 30 mosquito midguts dissected 8 days later.

[7] = test system: P. yoelii sporozoites; assay: Maturation assay: hepatocyte cultures infected with sporozoites, then treated; type: cell-based; details: all concentrations (50 pM, 1 μM, 10 μM) for 45 h after 3 h infection and washing
Experimental: The experiment consisted in infecting hepatocytes cultures with P. yoelii sporozoites for 3 h, washing the cultures and then treating them with MN 50 pM, 1 μM, or 10 μM, for 45 h at 37° C.

[8] = test system: P. yoelii blood stage; assay: Blood stage infection of mice with P. yoelii-infected red blood cells; type: in vivo; details: 25 mg/kg at day-3, day-2, day-1 before infection
Experimental: Two groups of mice were treated at day-3, day-2 and day-1 before infection with MN (25 mg/kg) or solvent (PBS-Methanol-2%). At day 0 the mice were inoculated IP with 4×10^5 P. yoelii-infected red blood cells. From day 3 post-infection, an enumeration of parasites in blood smears was conducted until day 10 post-infection.

SMILES | inhibition of parasite development (EEF) ([1]; sporozoites pre-treated 1 h with 5 pM) [%] | inhibition of parasite development (EEF) ([1]; sporozoites pre-treated 1 h with 0.5 μM) | inhibition of parasite development (EEF) ([1]; sporozoites pre-treated 1 h with 5 μM) | inhibition on parasite development (liver parasite burden, 18S rRNA/β-actin) [2] [%] | protection from erythrocytic infection (mice with no parasite in blood smears) ([3]; 25 mg/kg/day IP daily for 3 days (treated, from day 0)) | protection from erythrocytic infection (mice with no parasite in blood smears) ([3]; 25 mg/kg/day IP daily for 4 days (pre-treated, from day -1)) | inhibition of sporozoites migration [4] [%] | inhibition of parasite development (EEF) [5] | oocysts in mosquito midguts [6] | inhibition of parasite development [7] | parasitemia course ([8]; 4×10^5 infected red blood cells IP, blood smears day 3-10) | male gametocytes in blood ([8]; vs untreated group) | reduction of parasitemia with respect to controls ([3]; 35 mg/kg/day IP daily for 3 days (treated)) [%] | reduction of parasitemia with respect to controls ([3]; 35 mg/kg/day IP daily for 4 days (pretreated)) [%]
CC[C@@]1([C@H]2O[C@H]([C@H]3O[C@@](O)(CO)[C@H](C)C[C@@H]3C)C[C@H]2C)CC[C@H]([C@@]2(C)CC[C@]3(C[C@H](O)[C@@H](C)[C@@H]([C@H](C)[C@H](OC)[C@@H](C)C(=O)[O-])O3)O2)O1.[Na+] [MN, Monensin A sodium salt] | 96.26 | complete inhibition | complete inhibition | 96.8 | 100 % of the mice | 100 % of the mice | 93 | totally inhibited parasite development | No oocyst could be observed | completely inhibited parasite development | Increasing parasitemia, although delayed by comparison with the control group | no male gametocytes were observed | – | –
CO[C@@H]1C[C@@H](C[C@H]2CC[C@H](C)[C@H]([C@@H](C)C(=O)O)O2)O[C@]2(O[C@](C)([C@H]3CC[C@@](C)([C@@H]4O[C@@H]([C@H]5O[C@@](O)(CO)[C@H](C)C[C@@H]5C)C[C@@H]4C)O3)C[C@H]2C)[C@@H]1C [NG, Nigericin sodium salt, reference compound] | – | – | – | – | – | – | – | – | – | – | – | – | 51 | 71
